Laboratory results: US20250295606A1, “BIOSOLUBLE POLYMER OR PARTICLE FOR DELIVERY OF AN ACTIVE AGENT AND A METHOD FOR THE PRODUCTION” (Tijani Holding B.V., priority 2021, published 2025)

Key:
[1] = Plasma insulin level in diabetic Göttingen minipigs; format: in vivo; conditions: diabetic Göttingen minipig, subcutaneous injection
Description: (§1) The purpose of this chronic, large animal in vivo study was to test the effective penetration of insulin containing particles through the sublingual mucosa, compare the effect with the subcutaneously applied human recombinant, measure the blood glucose changes and analyses the plasma insulin levels. Domestic pigs were also included in the study to compare the glucose lowering effect of insulin-loaded particles in the Göttingen minipigs and domestic pigs. The test compounds were applied s.l. and s.c. to the pigs being under the anesthetic propofol (Amnesia).
On the first day of acclimatization a central venous catheter was installed (Certofix®Mono B-Braun V430) for each domestic pig and Göttingen minipig. The pigs were fasted overnight before the day of operation, but supplied with water ad libitum. The animals were pre-anesthetized intramuscularly with Calypsol/Xilazine (2/1.8 mL, based on body weight) injections in the stalls to avoid stress, and were transported to the operating room. The anesthesia was maintained using isoflurane inhalation narcosis (2-2.5%) with oxygen. […]. The venous catheters were introduced by aseptic technique into the left external jugular vein. The end of the catheter was pulled subcutaneously to the back part of the head between the ears, and fixed by sutures, in two layers. […]

[2] = system: diabetic Göttingen minipigs; experiment: Sublingual SLIM particles vs s.c. insulin, blood glucose in diabetic Göttingen minipigs; format: in vivo; conditions: Minipig 2, different days; SLIM-AF5 15 IU sublingual, RHI 10 IU subcutaneous; 2H30, after first 10 min
Description: Testing the sublingual application of SLIM particles loaded with insulin in normoglycemic and STZ diabetic […] in a chronic in vivo study.
as §1, with “The test compounds were applied s.l. and s.c. to the pigs being under the anesthetic propofol (Amnesia).” left out
In this study, we first recorded the effect of s.c. application of human recombinant insulin as reference compounds and s.c. and s.l. applications of micro-compounds. […] The glucose levels of the pigs were followed and monitored for at least 3 days. […]
Corresponding to Example 20, the efficacy of SLIM particles was compared to subcutaneous injection of commercial recombinant human insulin in the same diabetic Göttingen minipig (Minipig 2) on different days. First day the animal received SLIM-AF5 (AF, 15 IU) particles sublingually and the second day was administered Recombinant Human Insulin (RHI, 10 IU) subcutaneously and the BG levels were monitored for 2H30 and compared (FIG. 22).

pig = system: pig
Description: For sublingual (s.l.) treatment it is necessary to anesthetize the animals as to allow the application of the insulin complexes onto the sublingual mucosa, but long-term anesthesia is undesirable as it may affect insulin/glucose metabolism.

| Compound | maxima of plasma insulin ([1]; 2 IU) | maxima of plasma insulin ([1]; 10 IU) | BG level course [2] | time until the jaw was relaxed (pig; 5 mg/kg, 20 mg/mL i.v.) | time until the pig was laying down (pig; 5 mg/kg, 20 mg/mL i.v.) | blood glucose measurements under anesthesia (pig; 20 minutes before, then 5, 10, 15 and 30 minutes after anesthesia) |
| --- | --- | --- | --- | --- | --- | --- |
| recombinant human insulin: commercial recombinant human insulin, subcutaneous reference | only one insulin maximum in plasma | only one maximum peak of plasma insulin | continue to decline linearly with the time but with a slightly different speed and slop | – | – | – |
| CC(C)c1cccc(C(C)C)c1O [Propofol] | – | – | – | 60 s | 30 s | in the normal range |
